Test results: patent publication US20230107941A1, “HEPATITIS B CAPSID ASSEMBLY MODULATORS” (Venatorx Pharmaceuticals, Inc., priority 2019, published 2023)
Where two headings read alike, the source gives them in different places.

Columns and labels:
HBV [1] = assay: In vitro antiviral assay: anti-HBV replication in HepAD38 cells (extracellular HBV DNA by QPCR); format: cell-based, hepatitis B virus (genotype D, serotype ayw); details: 7 days incubation, extracellular HBV DNA by QPCR, read-out: Anti-HBV EC50
Method in brief: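 Read-out is extracellular HBV DNA (copies/mL, QPCR standard curve) after 7-day exposure of tet-free HepAD38 cells to 10-fold dilutions from 1 μM down to 10 pM. Values normalised to DMSO vehicle; EC50 from 4-parameter nonlinear regression, with entecavir validating each run.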

HepG2 cells = assay: In vitro cytotoxicity assay (MTT cell viability) in HepG2 cells; format: cell-based, human
Method in brief: (§1)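 CC50 was derived by 4-parameter fit of viability relative to vehicle controls, measured as MTT formazan absorbance at 492 nm after 3–4 h of reagent and DMSO solubilization. Before that, HepG2 cells seeded overnight at 20,000/well were incubated 7 days at 37°C with compound from 30 μM down to 1.0 nM in half-log steps.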

HBV [2] = details: Phase 1b clinical trial, 600 mg bid dosing for 29 days; cited from earlier work
[3] = In vitro cytotoxicity assay (MTT cell viability) in HepG2 cells; format: cell-based, human; details: human
Method in brief: as §1

[4] = Hepatitis B virus, HePAD38, 168 h

Work on `Cc1cc(NC(=O)c2c(C)c(C(=O)C(=O)NC3CC(S(C)(=O)=O)C3)n(C)c2C)ccc1F` (stereo not drawn) [Example 32, N-(4-fluoro-3-methylphenyl)-1,2,4-trimethyl-5-(2-(((1r,3r)-3-(methylsulfonyl)cyclobutyl)amino)-2-oxoacetyl)-1H-pyrrole-3-carboxamide] yielded an EC50 (HBV [1]) of 50 to 499 nM and a CC50 (HepG2 cells; human, 7 days) greater than 30000 nM.
In the case of `O=C(Nc1cc(F)c(F)c(F)c1)c1ccc(F)c(S(=O)(=O)N2CCC(O)CC2)c1` [NVR 3-778], the “reduction in HBV DNA” value (HBV [2]) is given as −1.7 log 10.
`Cc1cc(NC(=O)c2c(C)c(C(=O)C(=O)NC3(C)CC(OP(=O)(O)O)C3)n(C)c2C)ccc1F` (stereo not drawn) [Example 64, sodium (1s,3s)-3-(2-(4-((4-fluoro-3-methylphenyl)carbamoyl)-1,3,5-trimethyl-1H-pyrrol-2-yl)-2-oxoacetamido)-3-methylcyclobutyl phosphate] showed an EC50 (HBV [1]; [4]) greater than 1000 nM and a CC50 (HepG2 cells; HepG2 cells, 7 days incubation, MTT, read-out: HepG2 CC50) greater than 30000 nM.
`Cc1cc(NC(=O)c2c(C)c(C(=O)C(=O)Nc3cccnc3N3CCOCC3)n(C)c2C)ccc1F` [Example 53, N-(4-fluoro-3-methylphenyl)-1,2,4-trimethyl-5-(2-((2-morpholinopyridin-3-yl)amino)-2-oxoacetyl)-1H-pyrrole-3-carboxamide] gave an EC50 (HBV [1]; [4]) of less than 50 nM and a CC50 at 7 days [3] greater than 30000 nM.
For `Cc1cc(NC(=O)c2c(C)c(C(=O)C(=O)N[C@H]3CC[C@@H](S(C)(=O)=O)CC3)n(C)c2-c2ccsc2)ccc1F` [Example 182, N-(4-fluoro-3-methylphenyl)-1,4-dimethyl-5-(2-(((1s,4s)-4-(methylsulfonyl)cyclohexyl)amino)-2-oxoacetyl)-2-(thiophen-3-yl)-1H-pyrrole-3-carboxamide], the EC50 (HBV [1]; [4]) was greater than 1000 nM and the CC50 at 7 days [3] was greater than 30000 nM.
For `Cc1cc(NC(=O)c2c(C)c(C(=O)C(=O)NCC(C)(C)O)n(C)c2C(C)C)ccc1F` [Example 113, N-(4-fluoro-3-methylphenyl)-5-(2-((2-hydroxy-2-methylpropyl)amino)-2-oxoacetyl)-2-isopropyl-1,4-dimethyl-1H-pyrrole-3-carboxamide], the EC50 (HBV [1]; [4]) was 50 to 499 nM and the CC50 at 7 days [3] was greater than 30000 nM.
With `Cc1cc(NC(=O)c2c(C)c(C(=O)C(=O)N[C@H]3CC[C@@H](OCC(=O)O)CC3)n(C)c2C)ccc1F` [Example 144, 2-(((1s,4s)-4-(2-(4-((4-fluoro-3-methylphenyl)carbamoyl)-1,3,5-trimethyl-1H-pyrrol-2-yl)-2-oxoacetamido)cyclohexyl)oxy) acetic acid] the EC50 (HBV [1]; [4]) was 50 to 499 nM and the CC50 at 7 days [3] was greater than 30000 nM.
Compound `Cc1cc(NC(=O)c2c(C)c(C(=O)C(=O)N[C@H]3CC[C@@H](O)CC3)n(C)c2C2CCCC2)ccc1F` [Example 134, 2-cyclopentyl-N-(4-fluoro-3-methylphenyl)-5-(2-(((1s,4s)-4-hydroxycyclohexyl)amino)-2-oxoacetyl)-1,4-dimethyl-1H-pyrrole-3-carboxamide] has an EC50 (HBV [1]; [4]) of 50 to 499 nM and a CC50 at 7 days [3] greater than 30000 nM.
`Cc1cc(NC(=O)c2c(C)c(C(=O)C(=O)N[C@]3(C)C[C@H](O)C3)n(C)c2-c2ccccn2)ccc1F` [Example 155, N-(4-fluoro-3-methylphenyl)-5-(2-(((1s,3s)-3-hydroxy-1-methylcyclobutyl)amino)-2-oxoacetyl)-1,4-dimethyl-2-(pyridin-2-yl)-1H-pyrrole-3-carboxamide] showed an EC50 (HBV [1]; [4]) greater than 1000 nM and a CC50 at 7 days [3] greater than 30000 nM.
`Cc1c(C(=O)Nc2cccc(B(O)O)c2)c(C)n(C)c1C(=O)C(=O)NC(C)(C)C` [Example 46, (3-(5-(2-(tert-butylamino)-2-oxoacetyl)-1,2,4-trimethyl-1H-pyrrole-3-carboxamido)phenyl)boronic acid] gave an EC50 (HBV [1]; [4]) of 500 to 1000 nM and a CC50 at 7 days [3] greater than 30000 nM.
For `CCc1c(C(=O)Nc2ccc(F)c(C)c2)c(C)n(C)c1C(=O)C(=O)N[C@]1(C)C[C@H](O)C1` [Example 87, 4-ethyl-N-(4-fluoro-3-methylphenyl)-5-(2-(((1s,3s)-3-hydroxy-1-methylcyclobutyl)amino)-2-oxoacetyl)-1,2-dimethyl-1H-pyrrole-3-carboxamide], the EC50 (HBV [1]; [4]) was less than 50 nM and the CC50 at 7 days [3] was greater than 30000 nM.
Compound `Cc1cc(NC(=O)c2c(C(C)C)c(C(=O)C(=O)NCC(C)(C)O)n(C)c2C)ccc1F` [Example 94, N-(4-fluoro-3-methylphenyl)-5-(2-((2-hydroxy-2-methylpropyl)amino)-2-oxoacetyl)-4-isopropyl-1,2-dimethyl-1H-pyrrole-3-carboxamide] has an EC50 (HBV [1]; [4]) of 500 to 1000 nM and a CC50 at 7 days [3] greater than 30000 nM.
`CC[C@]1(NC(=O)C(=O)c2c(C)c(C(=O)Nc3ccc(F)c(C)c3)c(C)n2C)CC[C@H](O)CC1` [Example 4, 5-(2-(((1r,4r)-1-ethyl-4-hydroxycyclohexyl)amino)-2-oxoacetyl)-N-(4-fluoro-3-methylphenyl)-1,2,4-trimethyl-1H-pyrrole-3-carboxamide] gave an EC50 (HBV [1]; [4]) of less than 50 nM and a CC50 at 7 days [3] greater than 30000 nM.
Work on `Cc1cc(NC(=O)c2c(C)c(C(=O)C(=O)NC3C[C@H]4C[C@@H]3CC4O)n(C)c2C)ccc1F` (stereo partly drawn) [Example 23, N-(4-fluoro-3-methylphenyl)-5-(2-(((1R,4R)-5-hydroxybicyclo[2.2.1]heptan-2-yl)amino)-2-oxoacetyl)-1,2,4-trimethyl-1H-pyrrole-3-carboxamide] yielded an EC50 (HBV [1]; [4]) of less than 50 nM and a CC50 at 7 days [3] greater than 30000 nM.
